Measurements as given in patent EP1089755B1, “PHARMACEUTICAL PREPARATIONS FOR USE IN COMBATTING OR PREVENTING SURFACE INFECTIONS CAUSED BY MICROORGANISMS” (priority 1998, dated 2000).
Values after ≈ are worked out from the molar mass of the structure shown. Values belong to the molecule of their own block, whether it stands above or below them.

Assays:
C. glabrata Y110 [1] = test: Candida growth inhibition and MIC at several pH's in SLM or RPMI (96-well turbidity assay); type: cell-based, Candida glabrata; conditions: for MIC: Nakaseomyces glabratus, read-out: minimal inhibitory concentrations (MIC)
C. albicans Y106 = test: MIC of antifungal agents (96-well turbidity assay, 24 hours); type: cell-based; conditions: Candida albicans, isolate Y106, SLM, read-out: minimum inhibitory concentrations (MIC)
C. albicans Y127 = test: as above; type: cell-based; conditions: isolate Y127, SLM; for MIC: Candida albicans, read-out: minimum inhibitory concentrations (MIC)
C. glabrata Y110 [2] = test: as above; type: cell-based; conditions: for MIC: Nakaseomyces glabratus, Y110, 24 h, read-out: minimum inhibitory concentrations (MIC)
C. glabrata Y111 = test: as above; type: cell-based; conditions: Nakaseomyces glabratus, isolate Y111, SLM, read-out: minimum inhibitory concentrations (MIC)
C. glabrata Y110 [3] = test: Synergy experiments (8 by 8 dilution matrix, Prichard and Shipman method); type: cell-based, Candida glabrata
Candida glabrata Y110 = test: MIC in the presence of saliva (SLM or SLM/Saliva, pH 7.5); type: cell-based; conditions: Nakaseomyces glabratus
C. albicans ATCC 10231 = test: MIC of antifungal agents (96-well turbidity assay, 24 hours); type: cell-based; conditions: Candida albicans, isolate 10231 (ATCC strain), SLM, read-out: minimum inhibitory concentrations (MIC)
C. albicans Y098 = test: as above; type: cell-based; conditions: Candida albicans, isolate Y098, SLM, read-out: minimum inhibitory concentrations (MIC)
C. glabrata Y112 = test: as above; type: cell-based; conditions: Nakaseomyces glabratus, isolate Y112, SLM, read-out: minimum inhibitory concentrations (MIC)
C. tropicana Y140 = test: as above; type: cell-based; conditions: isolate Y140 (RPMI), RPMI-medium instead of SLM, read-out: minimum inhibitory concentrations (MIC)

SMILES: OC(Cn1cncn1)(Cn1cncn1)c1ccc(F)cc1F [Fluconazole, fluconazole]
MIC (C. glabrata Y110 [1]; Y110, RPMI, pH 5.0, 24 hours): 250 µg/mL (≈ 816 µM)
MIC (C. glabrata Y110 [1]; Y110, RPMI, pH 6.0, 24 hours): 110 µg/mL (≈ 359 µM)
MIC (C. glabrata Y110 [1]; Y110, RPMI, pH 7.0, 24 hours): 60 µg/mL (≈ 196 µM)
MIC (C. glabrata Y110 [1]; Y110, SLM, pH 5.6, 24 hours): 200 µg/mL (≈ 653 µM)
MIC (C. glabrata Y110 [1]; Y110, SLM, pH 6.5, 24 hours): 100 µg/mL (≈ 327 µM)
MIC (C. glabrata Y110 [1]; Y110, SLM, pH 7.5, 24 hours): 100 µg/mL (≈ 327 µM)
effect of an increase in pH of the medium on inhibition (C. glabrata Y110 [1]; SLM and RPMI): more efficient inhibition
MIC (C. albicans Y106): 10 µg/mL
MIC (C. albicans Y127): 10 µg/mL
MIC (C. glabrata Y110 [2]; isolate Y110, SLM): 159 µg/mL
minimum inhibitory concentrations (MIC) (C. glabrata Y110 [2]; isolate Y110, SLM): 156 ± 50 µg/mL
MIC (C. glabrata Y111): 24 ± 7 µg/mL
UV (C. glabrata Y110 [3]; Fluconazole 0.0033 mg/ml alone): 1.150
UV (C. glabrata Y110 [3]; Fluconazole 0.0066 mg/ml alone): 1.167
UV (C. glabrata Y110 [3]; Fluconazole 0.01 mg/ml alone): 1.154
UV (C. glabrata Y110 [3]; Fluconazole 0.033 mg/ml alone): 1.127
UV (C. glabrata Y110 [3]; Fluconazole 0.1 mg/ml alone): 0.618
UV (C. glabrata Y110 [3]; Fluconazole 0.2 mg/ml alone): 0.003
UV (C. glabrata Y110 [3]; Fluconazole 0.33 mg/ml alone): 0.003
UV (C. glabrata Y110 [3]; Fluconazole 0.5 mg/ml alone): 0.004
inhibition at 3.3 µg/mL (C. glabrata Y110 [3]; Nakaseomyces glabratus, Y110, Fluconazole 0.0033 mg/ml alone): 0%
inhibition at 6.6 µg/mL (C. glabrata Y110 [3]; Nakaseomyces glabratus, Y110, Fluconazole 0.0066 mg/ml alone): 0%
inhibition at 10 µg/mL (C. glabrata Y110 [3]; Nakaseomyces glabratus, Y110, Fluconazole 0.01 mg/ml alone): 0%
inhibition at 33 µg/mL (C. glabrata Y110 [3]; Nakaseomyces glabratus, Y110, Fluconazole 0.033 mg/ml alone): 0%
inhibition at 100 µg/mL (C. glabrata Y110 [3]; Nakaseomyces glabratus, Y110, Fluconazole 0.1 mg/ml alone): 39.5%
inhibition at 200 µg/mL (C. glabrata Y110 [3]; Nakaseomyces glabratus, Y110, Fluconazole 0.2 mg/ml alone): 99.8%
inhibition at 330 µg/mL (C. glabrata Y110 [3]; Nakaseomyces glabratus, Y110, Fluconazole 0.33 mg/ml alone): 99.8%
inhibition at 500 µg/mL (C. glabrata Y110 [3]; Nakaseomyces glabratus, Y110, Fluconazole 0.5 mg/ml alone): 99.6%
MIC (Candida glabrata Y110; Y110, SLM, pH 7.5): 100 µg/mL
MIC (Candida glabrata Y110; Y110, SLM/Saliva (50%/50%), 24 hours): 40 µg/mL
MIC (Candida glabrata Y110; Y110, SLM, pH 7.5, 24 hours): 100 µg/mL

MIC (C. albicans ATCC 10231): 0.06 ± 0.05 µg/mL
MIC (C. albicans Y098): 0.08 ± 0.03 µg/mL
MIC (C. albicans Y106): 0.082 ± 0.03 µg/mL
MIC (C. albicans Y127): 0.15 µg/mL
minimum inhibitory concentrations (MIC) (C. albicans Y127): 0.15 ± 0.07 µg/mL
MIC (C. glabrata Y110 [2]; isolate Y110, SLM): 0.173 ± 0.06 µg/mL
MIC (C. glabrata Y111): 0.14 ± 0.07 µg/mL
MIC (C. glabrata Y112): 0.4 ± 0.05 µg/mL
SMILES: C[C@@H]1[C@H](O)[C@@H](C)/C=C/C=C/C=C/C=C/C=C/C=C/C=C/[C@H](O[C@@H]2O[C@H](C)[C@@H](O)[C@H](N)[C@@H]2O)C[C@@H]2O[C@](O)(C[C@@H](O)C[C@@H](O)[C@H](O)CC[C@@H](O)C[C@@H](O)CC(=O)O[C@H]1C)C[C@H](O)[C@H]2C(=O)O [Amphoterricin B, Amphotericin B]

MIC (C. glabrata Y110 [2]; isolate Y110 (RPMI), RPMI-medium instead of SLM): 0.029 ± 0.005 µg/mL
MIC (C. tropicana Y140): 35 ± 7.07 µg/mL
SMILES: Nc1nc(=O)[nH]cc1F [5-Fluorocytosine, 5-fluorocytosine]
